What was measured:
[1] = molecular target: T1, ABCG2 (Homo sapiens, UniProt Q9UNQ0); experiment: ATPase stimulation in ABCG2-overexpressing membrane vesicles; format: biochemical; parameters: ABCG2 membrane vesicles that overexpressed ABCG2
T1 sequence (Q9UNQ0 1-655): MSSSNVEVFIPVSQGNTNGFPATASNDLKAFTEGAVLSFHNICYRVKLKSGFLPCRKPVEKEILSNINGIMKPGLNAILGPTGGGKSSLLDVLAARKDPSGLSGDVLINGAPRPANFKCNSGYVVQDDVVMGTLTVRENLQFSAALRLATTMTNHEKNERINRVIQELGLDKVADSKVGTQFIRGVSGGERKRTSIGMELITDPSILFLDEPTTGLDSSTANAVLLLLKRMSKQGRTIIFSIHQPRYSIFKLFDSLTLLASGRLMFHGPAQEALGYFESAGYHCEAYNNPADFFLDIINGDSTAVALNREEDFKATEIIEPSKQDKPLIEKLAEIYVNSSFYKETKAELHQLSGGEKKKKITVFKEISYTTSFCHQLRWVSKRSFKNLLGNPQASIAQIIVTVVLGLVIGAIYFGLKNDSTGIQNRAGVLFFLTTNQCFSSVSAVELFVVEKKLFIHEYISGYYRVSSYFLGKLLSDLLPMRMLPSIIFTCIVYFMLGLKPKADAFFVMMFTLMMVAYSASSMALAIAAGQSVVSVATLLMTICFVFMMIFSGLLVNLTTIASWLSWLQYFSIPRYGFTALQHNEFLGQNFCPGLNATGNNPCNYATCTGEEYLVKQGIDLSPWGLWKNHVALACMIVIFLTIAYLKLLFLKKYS

[2] = molecular target: T1, ABCG2

SMILES | EC50 [1] [nM] | [3H]-mitoxantrone accumulation and efflux in NCI-H460/MX20 versus parental NCI-H [2]
COc1cc(N2CCC(N3CCN(C)CC3)CC2)ccc1Nc1ncc(Cl)c(Nc2ccccc2S(=O)(=O)C(C)C)n1 [NVP-TAE684] | 91 | –
O=C1c2c(O)ccc(O)c2C(=O)c2c(NCCNCCO)ccc(NCCNCCO)c21 [Mitoxantrone] | – | NVP-TAE684 significantly reduced the extrusion of [^3H]-mitoxantrone in NCI-H460/MX20 cells
